Like-named read-outs stand apart in the source and are kept apart here.
Experiments:
Assay in all cases: Resazurin-based cell viability assay, monotherapy drug screen
Set-up in all cases: species or system human; AUC: scale not given here
HCC1806 cells = settings: for AUC: area under the dose response curve, 24 h; for GRmax: drug efficacy at highest tested dose (<0 cytotoxic, 0 cytostatic, >0 partial growth inhibition); for IC50: Homo sapiens
Description: (§1) Eighteen pharmaceutical compounds were purchased from Selleckchem. […] The stock solutions were stored at -80°C. […] New drug plates were prepared for each drug screen.
(§2) To determine the optimal seeding density and ensure that the cells were in the exponential phase during the duration of the experiment (approx. 52h), each cell line (BT-549, CAL-148, HCC1806, HCC38, HCC70, MCF-10A, MCF-7, MDA-MB-436, MDA-MB-453, and MDA-MB-468) was seeded at different concentrations (1000 to 16000 cells) per 96-well, as previously described. Cell viability was measured daily (day 0 [plating day] to day 4) using 0.2 mg/ml resazurin solution prepared from resazurin sodium salt (Fisher Scientific) dissolved in sterile 1xPBS (ThermoFisher Scientific). Before use, the resazurin solution was brought to RT before 10 µl (10% of cell medium volume) was added to each 96-well and incubated for 4h at 37°C. The absorbance was measured with a 560 nm excitation filter and a 615 nm emission filter in a Wallac 1420 VICTOR2™ microplate reader (Perkin Elmer). The slope of the curve was used to determine the optimal seeding density, i.e., the highest seeding density with linear growth between days 1 and 3.

HCC70 cells = settings: for AUC: area under the dose response curve, 24 h; for GRmax: drug efficacy at highest tested dose (<0 cytotoxic, 0 cytostatic, >0 partial growth inhibition)
Description: as §1, §2

MDA-MB-468 cells = settings: for AUC: area under the dose response curve, 24 h
Description: as §1, §2

MCF-7 cells = settings: for AUC: area under the dose response curve, 24 h; for GRmax: drug efficacy at highest tested dose (<0 cytotoxic, 0 cytostatic, >0 partial growth inhibition)
Description: as §1, §2

HCC38 cells = settings: for AUC: area under the dose response curve, 24 h; for GRmax: drug efficacy at highest tested dose (<0 cytotoxic, 0 cytostatic, >0 partial growth inhibition)
Description: as §1, §2

MDA-MB-453 cells = settings: for IC50: Homo sapiens; for AUC: area under the dose response curve, 24 h
Description: as §1, §2

MCF-10A cells = settings: for AUC: area under the dose response curve
Description: as §1, §2

MDA-MB-436 cells = settings: for AUC: area under the dose response curve, 24 h; for GRmax: drug efficacy at highest tested dose (<0 cytotoxic, 0 cytostatic, >0 partial growth inhibition)
Description: as §1, §2

BT-549 cells = settings: for AUC: area under the dose response curve, 24 h; for GRmax: drug efficacy at highest tested dose (<0 cytotoxic, 0 cytostatic, >0 partial growth inhibition)
Description: as §1, §2

`CC(C)C[C@H](NC(=O)[C@H](Cc1ccccc1)NC(=O)c1cnccn1)B(O)O` [Bortezomib] gave an AUC (HCC1806 cells; HCC1806) of 0.70, a GRmax (HCC1806 cells; HCC1806) of 0.33 and an IC50 (HCC1806 cells; HCC1806, 24 h drug treatment, read-out: IC50) of 0.79 µM. For the same compound, the IC50 (HCC1806 cells; HCC1806, growth rate inhibition concentration at GR(c) = 0.5, 24 h, read-out: GR50 (the source's name)) was 0.38 µM, the AUC (HCC70 cells; HCC70) was 0.68 and the GRmax (HCC70 cells; HCC70) was −0.55. It also gave an IC50 (HCC70 cells; Homo sapiens, HCC70, 24 h drug treatment, read-out: IC50) of 0.81 µM, an IC50 (HCC70 cells; Homo sapiens, HCC70, growth rate inhibition concentration at GR(c) = 0.5, 24 h, read-out: GR50 (the source's name)) of 0.1 µM and an IC50 (MDA-MB-468 cells; Homo sapiens, MDA-MB-468, 24 h drug treatment, read-out: IC50) of 0.054 µM. For the same compound, the IC50 (MDA-MB-468 cells; Homo sapiens, MDA-MB-468, growth rate inhibition concentration at GR(c) = 0.5, 24 h, read-out: GR50 (the source's name)) was 0.017 µM, the AUC (MDA-MB-468 cells; MDA-MB-468) was 0.57 and the IC50 (MCF-7 cells; Homo sapiens, MCF7, MCF-7, growth rate inhibition concentration at GR(c) = 0.5, 24 h, read-out: GR50 (the source's name)) was 0.031 µM. It also gave an AUC (MCF-7 cells; MCF-7) of 0.78, a GRmax (MCF-7 cells; MCF-7) of −0.43 and an AUC (HCC38 cells; HCC38) of 0.40. For the same compound, the GRmax (HCC38 cells; HCC38) was −0.99, the IC50 (HCC38 cells; Homo sapiens, HCC38, 24 h drug treatment, read-out: IC50) was 0.024 µM and the IC50 (HCC38 cells; Homo sapiens, HCC38, growth rate inhibition concentration at GR(c) = 0.5, 24 h, read-out: GR50 (the source's name)) was 0.01 µM. For the same compound, the IC50 (MDA-MB-453 cells; MDA-MB-453, growth rate inhibition concentration at GR(c) = 0.5, 24 h, read-out: GR50 (the source's name)) was 0.063 µM, the AUC (MDA-MB-453 cells; MDA-MB-453) was 0.75 and the IC50 (MCF-10A cells; Homo sapiens, 24 h drug treatment, read-out: IC50) was 0.046 µM. The IC50 (MCF-10A cells; Homo sapiens, growth rate inhibition concentration at GR(c) = 0.5, 24 h, read-out: GR50 (the source's name)) was 0.012 µM, the AUC (MCF-10A cells; 24 h) was 0.59 and the IC50 (MDA-MB-436 cells; Homo sapiens, MDA-MB-436, growth rate inhibition concentration at GR(c) = 0.5, 24 h, read-out: GR50 (the source's name)) was 0.021 µM. The AUC (MDA-MB-436 cells; MDA-MB-436) was 0.75, the GRmax (MDA-MB-436 cells; MDA-MB-436) was −0.76 and the AUC (BT-549 cells; BT-549) was 0.66. For the same compound, the GRmax (BT-549 cells; BT-549) was 0.39 and the IC50 (BT-549 cells; Homo sapiens, BT-549, growth rate inhibition concentration at GR(c) = 0.5, 24 h, read-out: GR50 (the source's name)) was 0.1 µM.

In the case of `CC1=C(O)C(=O)C=C2C1=CC=C1[C@@]2(C)CC[C@@]2(C)[C@@H]3C[C@](C)(C(=O)O)CC[C@]3(C)CC[C@]12C` [Celastrol], the AUC (HCC1806 cells; HCC1806) is reported as 0.81, the GRmax (HCC1806 cells; HCC1806) is reported as −0.82 and the IC50 (HCC1806 cells; HCC1806, 24 h) is reported as 2.1 µM. For the same compound, the IC50 (HCC1806 cells; HCC1806, 24 h, read-out: GR50 (µM)) was 3.4 µM, the AUC (HCC70 cells; HCC70) was 0.82 and the GRmax (HCC70 cells; HCC70) was −0.98. For the same compound, the IC50 (HCC70 cells; Homo sapiens, HCC70, 24 h) was 1.8 µM, the IC50 (HCC70 cells; Homo sapiens, HCC70, 24 h, read-out: GR50 (µM)) was 1.2 µM and the IC50 (MDA-MB-468 cells; Homo sapiens, MDA-MB-468, 24 h) was 1 µM. For the same compound, the IC50 (MDA-MB-468 cells; Homo sapiens, MDA-MB-468, 24 h, read-out: GR50 (µM)) was 0.75 µM, the AUC (MDA-MB-468 cells; MDA-MB-468) was 0.75 and the IC50 (MCF-7 cells; Homo sapiens, MCF7, 24 h) was 2.8 µM. For the same compound, the IC50 (MCF-7 cells; Homo sapiens, MCF7, 24 h, read-out: GR50 (µM)) was 3.3 µM, the AUC (MCF-7 cells; MCF-7) was 0.89 and the GRmax (MCF-7 cells; MCF-7) was −0.30. For the same compound, the AUC (HCC38 cells; HCC38) was 0.79, the GRmax (HCC38 cells; HCC38) was −0.96 and the IC50 (HCC38 cells; Homo sapiens, HCC38, 24 h) was 1.4 µM. For the same compound, the IC50 (HCC38 cells; Homo sapiens, HCC38, 24 h, read-out: GR50 (µM)) was 1.2 µM, the IC50 (MDA-MB-453 cells; MDA-MB-453, 24 h) was 3.7 µM and the IC50 (MDA-MB-453 cells; MDA-MB-453, 24 h, read-out: GR50 (µM)) was 3.4 µM. For the same compound, the AUC (MDA-MB-453 cells; MDA-MB-453) was 0.87, the IC50 (MCF-10A cells; Homo sapiens, 24 h) was 1.6 µM and the IC50 (MCF-10A cells; Homo sapiens, 24 h, read-out: GR50 (µM)) was 1.8 µM. It also gave an AUC (MCF-10A cells; 24 h) of 0.81, an IC50 (MDA-MB-436 cells; Homo sapiens, MDA-MB-436, 24 h) of 3.2 µM and an IC50 (MDA-MB-436 cells; Homo sapiens, MDA-MB-436, 24 h, read-out: GR50 (µM)) of 2.4 µM. It also gave an AUC (MDA-MB-436 cells; MDA-MB-436) of 0.85, a GRmax (MDA-MB-436 cells; MDA-MB-436) of −0.63 and an AUC (BT-549 cells; BT-549) of 0.82. For the same compound, the GRmax (BT-549 cells; BT-549) was −0.51, the IC50 (BT-549 cells; Homo sapiens, BT-549, 24 h) was 1.3 µM and the IC50 (BT-549 cells; Homo sapiens, BT-549, 24 h, read-out: GR50 (µM)) was 1.5 µM.

In the case of `N.N.O=C([O-])C1(C(=O)[O-])CCC1.[Pt+2]` [Carboplatin], the AUC (HCC1806 cells; HCC1806) is reported as 0.90, the GRmax (HCC1806 cells; HCC1806) is reported as 0.53 and the IC50 (HCC70 cells; HCC70, 24 h drug treatment, read-out: IC50) is reported as 0.45 µM. The AUC (HCC70 cells; HCC70) was 0.83, the GRmax (HCC70 cells; HCC70) was −0.42 and the IC50 (HCC70 cells; HCC70, growth rate inhibition concentration at GR(c) = 0.5, 24 h, read-out: GR50 (the source's name)) was 0.27 µM. For the same compound, the IC50 (MDA-MB-468 cells; MDA-MB-468, 24 h drug treatment, read-out: IC50) was 0.47 µM, the AUC (MDA-MB-468 cells; MDA-MB-468) was 0.81 and the GRmax (MDA-MB-468 cells; MDA-MB-468, drug efficacy at highest tested dose (<0 cytotoxic, 0 cytostatic, >0 partial growth inhibition)) was 0.02. The IC50 (MDA-MB-468 cells; MDA-MB-468, growth rate inhibition concentration at GR(c) = 0.5, 24 h, read-out: GR50 (the source's name)) was 0.24 µM, the AUC (MCF-7 cells; MCF-7) was 0.91 and the GRmax (MCF-7 cells; MCF-7) was −0.15. The IC50 (MCF-7 cells; MCF-7, growth rate inhibition concentration at GR(c) = 0.5, 24 h, read-out: GR50 (the source's name)) was 0.36 µM, the IC50 (HCC38 cells; HCC38, 24 h drug treatment, read-out: IC50) was 0.89 µM and the AUC (HCC38 cells; HCC38) was 0.88. It also gave a GRmax (HCC38 cells; HCC38) of 0.03, an IC50 (HCC38 cells; HCC38, growth rate inhibition concentration at GR(c) = 0.5, 24 h, read-out: GR50 (the source's name)) of 0.43 µM and an AUC (MDA-MB-453 cells; MDA-MB-453) of 0.98. For the same compound, the GRmax (MDA-MB-453 cells; MDA-MB-453, drug efficacy at highest tested dose (<0 cytotoxic, 0 cytostatic, >0 partial growth inhibition)) was 0.79, the IC50 (MCF-10A cells; 24 h drug treatment, read-out: IC50) was 0.73 µM and the AUC (MCF-10A cells; 24 h) was 0.90. For the same compound, the GRmax (MCF-10A cells; drug efficacy at highest tested dose (<0 cytotoxic, 0 cytostatic, >0 partial growth inhibition)) was 0.19, the IC50 (MCF-10A cells; growth rate inhibition concentration at GR(c) = 0.5, 24 h, read-out: GR50 (the source's name)) was 0.76 µM and the AUC (MDA-MB-436 cells; MDA-MB-436) was 0.91. It also gave a GRmax (MDA-MB-436 cells; MDA-MB-436) of 0.41, an IC50 (MDA-MB-436 cells; MDA-MB-436, growth rate inhibition concentration at GR(c) = 0.5, 24 h, read-out: GR50 (the source's name)) of 0.87 µM and an AUC (BT-549 cells; BT-549) of 0.85. For the same compound, the GRmax (BT-549 cells; BT-549) was 0.39 and the IC50 (BT-549 cells; BT-549, growth rate inhibition concentration at GR(c) = 0.5, 24 h, read-out: GR50 (the source's name)) was 0.67 µM.

Source: paper PMC10825133, “Repurposing proteasome inhibitors for improved treatment of triple-negative breast cancer” (Cell Death Discovery, 2024)
